These molecules were tested against T1, human DLK (Homo sapiens, UniProt Q12852) (assay: DLK Kd Determinations (KINOMEscan KdELECT, DiscoveRx)). Conditions: fusion protein of full length human DLK (amino acids 1-859) and NFkB DNA binding domain; qPCR readout; duplicate.
T1 sequence (Q12852 1-859): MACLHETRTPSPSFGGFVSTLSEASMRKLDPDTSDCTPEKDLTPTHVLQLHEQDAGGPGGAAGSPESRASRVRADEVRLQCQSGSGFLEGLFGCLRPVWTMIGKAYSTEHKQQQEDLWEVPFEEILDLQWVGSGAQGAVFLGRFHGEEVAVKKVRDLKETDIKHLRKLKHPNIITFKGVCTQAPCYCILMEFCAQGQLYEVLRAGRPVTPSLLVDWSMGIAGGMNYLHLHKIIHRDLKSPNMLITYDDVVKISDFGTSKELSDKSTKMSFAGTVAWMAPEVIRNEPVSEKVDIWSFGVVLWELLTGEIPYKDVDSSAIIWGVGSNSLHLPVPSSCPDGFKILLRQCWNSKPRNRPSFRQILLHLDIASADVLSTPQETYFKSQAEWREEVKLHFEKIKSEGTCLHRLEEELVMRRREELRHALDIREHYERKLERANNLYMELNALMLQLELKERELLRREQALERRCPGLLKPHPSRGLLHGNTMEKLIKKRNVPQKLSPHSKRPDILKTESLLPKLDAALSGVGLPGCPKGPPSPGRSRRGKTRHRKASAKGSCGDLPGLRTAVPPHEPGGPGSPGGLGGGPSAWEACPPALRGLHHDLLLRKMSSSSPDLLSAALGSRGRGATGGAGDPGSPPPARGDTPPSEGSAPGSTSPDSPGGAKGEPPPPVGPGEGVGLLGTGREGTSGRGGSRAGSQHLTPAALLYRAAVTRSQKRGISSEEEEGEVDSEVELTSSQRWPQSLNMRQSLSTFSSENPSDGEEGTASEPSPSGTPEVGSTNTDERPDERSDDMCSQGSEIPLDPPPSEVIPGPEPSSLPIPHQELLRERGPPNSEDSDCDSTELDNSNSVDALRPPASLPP
Parameters: full length of human DLK (amino acids 1-859); host or cells: transiently transfected HEK293 cells; unpurified extract
Method: The DLK dissociation constants (Kd) have been determined in the KINOMEscan KdELECT Service at DiscoveRx.
A fusion protein of full length of human DLK (amino acids 1-859) and the DNA binding domain of NFkB was expressed in transiently transfected HEK293 cells. From these HEK 293 cells, extracts were prepared in M-PER extraction buffer (Pierce) in the presence of Protease Inhibitor Cocktail Complete (Roche) and Phosphatase Inhibitor Cocktail Set II (Merck) per manufacturers' instructions. The DLK fusion protein was labeled with a chimeric double-stranded DNA tag containing the NFkB binding site (5′-GGGAATTCCC-3′) fused to an amplicon for qPCR readout, which was added directly to the expression extract (the final concentration of DNA-tag in the binding reaction is 0.1 nM).
Streptavidin-coated magnetic beads (Dynal M280) were treated with a biotinylated small molecule ligand for 30 minutes at room temperature to generate affinity resins the binding assays. The liganded beads were blocked with excess biotin and washed with blocking buffer (SeaBlock (Pierce), 1% BSA, 0.05% Tween 20, 1 mM DTT) to remove unbound ligand and to reduce nonspecific binding.
Extracts were used directly in binding assays without any enzyme purification steps at a ≧10,000-fold overall stock dilution (final DNA-tagged enzyme concentration <0.1 nM). Extracts were loaded with DNA-tag and diluted into the binding reaction in a two step process. First extracts were diluted 1:100 in 1× binding buffer (PBS/0.05% Tween 20/10 mM DTT/0.1% BSA/2 μg/ml sonicated salmon sperm DNA) containing 10 nM DNA-tag. This dilution was allowed to equilibrate at room temperature for 15 minutes and then subsequently diluted 1:100 in 1× binding buffer. Test compounds were prepared as 111× stocks in 100% DMSO. Kds were determined using an 11-point 3-fold compound dilution series with three DMSO control points. All compounds for Kd measurements are distributed by acoustic transfer (non-contact dispensing) in 100% DMSO. The compounds were then diluted directly into the assays such that the final concentration of DMSO was 0.9%. All reactions performed in polypropylene 384-well plates. Each was a final volume of 0.02 mL. Assays were incubated with shaking for 1 hour at room temperature. Then the beads were pelleted and washed with wash buffer (1×PBS, 0.05% Tween 20) to remove displaced kinase and test compound. The washed based were re-suspended in elution buffer (1×PBS, 0.05% Tween 20, 0.5 μM non-biotinylated affinity ligand) and incubated at room temperature with shaking for 30 minutes. The kinase concentration in the eluates was measured by qPCR. qPCR reactions were assembled by adding 2.5 μL of kinase eluate to 7.5 μL of qPCR master mix containing 0.15 μM amplicon primers and 0.15 μM amplicon probe. The qPCR protocol consisted of a 10 minute hot start at 95° C., followed by 35 cycles of 95° C. for 15 seconds, 60° C. for 1 minute.
Test compounds were prepared as 111× stocks in 100% DMSO. Kds were determined using an 11-point 3-fold compound dilution series with three DMSO control points. All compounds for Kd measurements are distributed by acoustic transfer (non-contact dispensing) in 100% DMSO. The compounds were then diluted directly into the assays such that the final concentration of DMSO was 0.9%. The Kds were determined using a compound top concentration of 30,000 nM. Kd measurements were performed in duplicate.
Binding constants (Kds) were calculated with a standard dose-response curve using the Hill equation: […]
The Hill Slope was set to −1. Curves were fitted using a non-linear least square fit with the Levenberg-Marquardt algorithm (Levenberg, K., A method for the solution of certain non-linear problems in least squares, Q. Appl. Math. 2, 164-168 (1944)). See also Fabian, M. A. et al. A small molecule-kinase interaction map for clinical kinase inhibitors. Nat. Biotechnol. […]

| Kd | SMILES |
| --- | --- |
| 0.068 µM | CC(C)c1nc(-c2cnc(N)c(C(F)(F)F)c2)cn1[C@H]1[C@@H]2CN(CCF)C[C@@H]21 [Example 16, 5-(1-((1R,5S,6s)-3-(2-fluoroethyl)-3-azabicyclo[3.1.0]hexan-6-yl)-2-isopropyl-1H-imidazol-4-yl)-3-(trifluoromethyl)pyridin-2-amine] |
| 0.16 µM | CC(C)c1nc(-c2cnc(N)c(OC(F)F)c2)cn1[C@H]1[C@@H]2CN(CC(F)F)C[C@@H]21 [Example 112, 5-(1-((1R,5S,6s)-3-(2,2-difluoroethyl)-3-azabicyclo[3.1.0]hexan-6-yl)-2-isopropyl-1H-imidazol-4-yl)-3-(difluoromethoxy)pyridin-2-amine] |
| 0.21 µM | COCCN1C[C@@H]2[C@H](C1)[C@H]2n1cc(-c2cnc(N)c(C(F)(F)F)c2)nc1C(C)C [Example 15, 5-(2-isopropyl-1-((1R,5S,6s)-3-(2-methoxyethyl)-3-azabicyclo[3.1.0]hexan-6-yl)-1H-imidazol-4-yl)-3-(trifluoromethyl)pyridin-2-amine] |
| 0.2 µM | CC(=O)N1C[C@@H]2[C@H](C1)[C@H]2n1cc(-c2cnc(N)c(OC(F)F)c2)nc1CC1CC1 [Example 115, 1-((1R,5S,6s)-6-(4-(6-amino-5-(difluoromethoxy)pyridin-3-yl)-2-(cyclopropylmethyl)-1H-imidazol-1-yl)-3-azabicyclo[3.1.0]hexan-3-yl)ethan-1-one] |
| 0.24 µM | Nc1ncc(-c2cn(C3CC3)c(C3CC3)n2)cc1C(F)(F)F [Example 9, 5-(1,2-dicyclopropyl-1H-imidazol-4-yl)-3-(trifluoromethyl)pyridin-2-amine] |
| 0.13 µM | Nc1ncc(-c2cn([C@H]3[C@@H]4CN(C5COC5)C[C@@H]43)c(C3CCC3)n2)cc1C(F)(F)F [Example 51, 5-(2-cyclobutyl-1-((1R,5S,6s)-3-(oxetan-3-yl)-3-azabicyclo[3.1.0]hexan-6-yl)-1H-imidazol-4-yl)-3-(trifluoromethyl)pyridin-2-amine] |
| 0.2 µM | CC(C)c1nc(-c2cnc(N)c(C(F)(F)F)c2)cn1[C@H]1C[C@H](F)C1 [Example 25, 5-(1-((1r,3r)-3-fluorocyclobutyl)-2-isopropyl-1H-imidazol-4-yl)-3-(trifluoromethyl)pyridin-2-amine] |
| 0.047 µM | CC(C)c1nc(-c2cnc(N)c(C(F)(F)F)c2)cn1[C@H]1[C@@H]2CN(C3COC3)C[C@@H]21 [Example 12, 5-(2-isopropyl-1-((1R,5S,6s)-3-(oxetan-3-yl)-3-azabicyclo[3.1.0]hexan-6-yl)-1H-imidazol-4-yl)-3-(trifluoromethyl)pyridin-2-amine] |
| 0.095 µM | COCCN1C[C@@H]2[C@H](C1)[C@H]2n1cc(-c2cnc(N)c(OC(F)F)c2)nc1C(C)C [Example 113, 3-(difluoromethoxy)-5-(2-isopropyl-1-((1R,5S,6s)-3-(2-methoxyethyl)-3-azabicyclo[3.1.0]hexan-6-yl)-1H-imidazol-4-yl)pyridin-2-amine] |
| 1.2 µM | Nc1ncc(-c2cn3c(n2)C(C2CC2)OCC3)cc1C(F)(F)F (stereo not shown) [Example 49, 5-(8-cyclopropyl-5,6-dihydro-8H-imidazo[2,1-c][1,4]oxazin-2-yl)-3-(trifluoromethyl)pyridin-2-amine] |

The next lines start with the molecule.

| SMILES | Kd |
| --- | --- |
| CC(C)c1nc(-c2cnc(N)c(C(F)(F)F)c2)cn1Cc1ccccn1 [Example 30, 5-(2-isopropyl-1-(pyridin-2-ylmethyl)-1H-imidazol-4-yl)-3-(trifluoromethyl)pyridin-2-amine] | 1.5 µM |
| COCCN1C[C@@H]2[C@H](C1)[C@H]2n1cc(-c2cnc(N)c(OC(F)(F)F)c2)nc1CC1CC1 [Example 100, 5-(2-(cyclopropylmethyl)-1-((1R,5S,6s)-3-(2-methoxyethyl)-3-azabicyclo[3.1.0]hexan-6-yl)-1H-imidazol-4-yl)-3-(trifluoromethoxy)pyridin-2-amine] | 0.066 µM |
| Nc1ncc(-c2cn([C@H]3[C@@H]4CN(C5COC5)C[C@@H]43)c(CC3CC3)n2)cc1OC(F)F [Example 87, 5-(2-(cyclopropylmethyl)-1-((1R,5S,6s)-3-(oxetan-3-yl)-3-azabicyclo[3.1.0]hexan-6-yl)-1H-imidazol-4-yl)-3-(difluoromethoxy)pyridin-2-amine] | 0.11 µM |
| CC(C)c1nc(-c2cnc(N)c(C(F)(F)F)c2)cn1C1CN(C2COC2)C1 [Example 27, 5-(2-isopropyl-1-(1-(oxetan-3-yl)azetidin-3-yl)-1H-imidazol-4-yl)-3-(trifluoromethyl)pyridin-2-amine] | 0.27 µM |
| Nc1ncc(-c2cn([C@H]3[C@@H]4CNC[C@@H]43)c(CC3CC3)n2)cc1OC(F)F [Example 86, 5-(1-((1R,5S,6s)-3-azabicyclo[3.1.0]hexan-6-yl)-2-(cyclopropylmethyl)-1H-imidazol-4-yl)-3-(difluoromethoxy)pyridin-2-amine] | 0.11 µM |
| CC(C)c1nc(-c2cnc(N)c(OC(F)F)c2)cn1[C@H]1[C@@H]2CN(C3CCOCC3)C[C@@H]21 [Example 60, 3-(difluoromethoxy)-5-(2-isopropyl-1-((1R,5S,6s)-3-(tetrahydro-2H-pyran-4-yl)-3-azabicyclo[3.1.0]hexan-6-yl)-1H-imidazol-4-yl)pyridin-2-amine] | 0.18 µM |
| Nc1ncc(-c2cn([C@H]3[C@@H]4CN(CC(F)F)C[C@@H]43)c(C3CC3)n2)cc1OC(F)(F)F [Example 67, 5-(2-cyclopropyl-1-((1R,5S,6s)-3-(2,2-difluoroethyl)-3-azabicyclo[3.1.0]hexan-6-yl)-1H-imidazol-4-yl)-3-(trifluoromethoxy)pyridin-2-amine] | 0.13 µM |
| Nc1ncc(-c2cn([C@H]3[C@@H]4CN(C5COC5)C[C@@H]43)c(C3CCCC3)n2)cc1C(F)(F)F [Example 62, 5-(2-cyclopentyl-1-((1R,5S,6s)-3-(oxetan-3-yl)-3-azabicyclo[3.1.0]hexan-6-yl)-1H-imidazol-4-yl)-3-(trifluoromethyl)pyridin-2-amine] | 0.085 µM |
| CC(C)c1nc(-c2cnc(N)c(C(F)(F)F)c2)cn1C1CCC(O)CC1 (stereo not shown) [Example 33, 4-(4-(6-amino-5-(trifluoromethyl)pyridin-3-yl)-2-isopropyl-1H-imidazol-1-yl)cyclohexan-1-ol] | 0.13 µM |

— patent publication US20180057507A1, “INHIBITORS OF DUAL LEUCINE ZIPPER (DLK) KINASE FOR THE TREATMENT OF DISEASE” (Board of Regents, The University of Texas System, priority 2016, published 2018)
